{"source": "patent US4355040A", "about": "“Hypotensive imidazole-5-acetic acid derivatives” (Takeda Chemical Industries, Ltd., priority 1979, dated 1982)", "key": {"[1]": {"tested_on": "angiotensin II (aortic blood vessel of rabbits)", "test": "Antagonistic effect on angiotensin II (A II)-induced tension, aortic blood vessel of rabbits", "type": "cell-based", "conditions": "Oryctolagus cuniculus, 0.25 h, A II 4×10^-9 M, 15 minutes", "text": "Antagonistic effect of the compound (I) of the present invention on angiotensin II (hereinafter referred to briefly as \"A II\") (with aortic blood vessel of rabbits)\nThe blood-vessel preparation and reaction were done in accordance with the method as described in \"European Journal of Pharmacology\", 18, 316 (1972). […] [formula] where; T1 =Change in isometric tension of the blood vessel brought about by A II without a test drug substance (g)"}, "[2]": {"tested_on": "angiotensin II-induced elevation of blood pressure", "test": "Inhibitory activity against angiotensin II-induced elevation of blood pressure in rats", "type": "in vivo, Male SD rats", "conditions": "for inhibition in vivo at 0.1 mg/kg / inhibition in vivo at 0.3 mg/kg / inhibition in vivo at 1 mg/kg / inhibition in vivo at 0.5 mg/kg / inhibition in vivo at 0.03 mg/kg / inhibition in vivo at 3 mg/kg: Rattus norvegicus, iv; for inhibition in vivo at 1 mg/kg: 1.0 mg/kg intravenously; for inhibition in vivo at 0.5 mg/kg: 0.5 mg/kg intravenously; for inhibition in vivo at 0.03 mg/kg: 0.03 mg/kg intravenously; for inhibition in vivo at 3 mg/kg: 3.0 mg/kg intravenously"}, "[3]": {"conditions": "10 min, 0.1 mg/kg intravenously, A II 20 ng/kg/min, 10 min, read-out: Inhibition (%), after 10 min."}, "[4]": {"conditions": "0.5 h, 0.1 mg/kg intravenously, A II 20 ng/kg/min, 30 min, read-out: Inhibition (%), after 30 min."}, "[5]": {"conditions": "1.5 h, 0.1 mg/kg intravenously, A II 20 ng/kg/min, 90 min, read-out: Inhibition (%), after 90 min."}, "[6]": {"conditions": "10 min, 0.3 mg/kg intravenously, A II 20 ng/kg/min, 10 min, read-out: Inhibition (%), after 10 min."}, "[7]": {"conditions": "0.5 h, 0.3 mg/kg intravenously, A II 20 ng/kg/min, 30 min, read-out: Inhibition (%), after 30 min."}, "[8]": {"conditions": "1.5 h, 0.3 mg/kg intravenously, A II 20 ng/kg/min, 90 min, read-out: Inhibition (%), after 90 min."}, "[9]": {"conditions": "10 min, A II 20 ng/kg/min, 10 min, read-out: Inhibition (%), after 10 min."}, "[10]": {"conditions": "0.5 h, A II 20 ng/kg/min, 30 min, read-out: Inhibition (%), after 30 min."}, "[11]": {"conditions": "1.5 h, A II 20 ng/kg/min, 90 min, read-out: Inhibition (%), after 90 min."}, "[12]": {"conditions": "10 min, read-out: Inhibition (%), after 10 min."}, "[13]": {"conditions": "0.5 h, read-out: Inhibition (%), after 30 min."}, "[14]": {"conditions": "1.5 h, read-out: Inhibition (%), after 90 min."}}, "note": "Like-named read-outs stand apart in the source and are kept apart here.", "data": [{"compound": "CCCCc1nc(Cl)c(CC(=O)O)n1Cc1ccccc1Cl", "note": "[n-C4 H9 / 2-Cl / H / H]", "values": [{"measurement": "inhibition at 0.1 µM", "setting": "[1]; 10^-7 M drug substance", "result": 75, "unit": "%"}, {"measurement": "inhibition in vivo at 0.1 mg/kg", "setting": "[2]; [3]", "result": 38, "unit": "%"}, {"measurement": "inhibition in vivo at 0.1 mg/kg", "setting": "[2]; [4]", "result": 100, "unit": "%"}, {"measurement": "inhibition in vivo at 0.1 mg/kg", "setting": "[2]; [5]", "result": 86, "unit": "%"}]}, {"compound": "CCCCc1nc(Cl)c(CC(=O)O)n1Cc1ccccc1", "note": "[n-C4 H9 / H / H / H, 1-Benzyl-2-n-butyl-4-chloroimidazole-5-acetic acid]", "values": [{"measurement": "inhibition at 1 µM", "setting": "[1]; 10^-6 M drug substance, read-out: Inhibition", "result": 55, "unit": "%"}, {"measurement": "inhibition in vivo at 0.1 mg/kg", "setting": "[2]; [3]", "result": "19.6 ± 1.5", "unit": "%"}, {"measurement": "inhibition in vivo at 0.3 mg/kg", "setting": "[2]; [6]", "result": 25, "unit": "%"}, {"measurement": "inhibition in vivo at 0.1 mg/kg", "setting": "[2]; [4]", "result": "64.3 ± 15.3", "unit": "%"}, {"measurement": "inhibition in vivo at 0.3 mg/kg", "setting": "[2]; [7]", "result": 94, "unit": "%"}, {"measurement": "inhibition in vivo at 0.1 mg/kg", "setting": "[2]; [5]", "result": "60 ± 21.5", "unit": "%"}, {"measurement": "inhibition in vivo at 0.3 mg/kg", "setting": "[2]; [8]", "result": 94, "unit": "%"}]}, {"compound": "O=C(O)Cc1c(Cl)nc(-c2ccccc2)n1Cc1ccccc1Cl", "note": "[drawing 134]", "values": [{"measurement": "inhibition in vivo at 1 mg/kg", "setting": "[2]; [9]", "result": "11.8 ± 1.8", "unit": "%"}, {"measurement": "inhibition in vivo at 1 mg/kg", "setting": "[2]; [10]", "result": "36.5 ± 4.5", "unit": "%"}, {"measurement": "inhibition in vivo at 1 mg/kg", "setting": "[2]; [11]", "result": "32.3 ± 7", "unit": "%"}]}, {"compound": "O=C(O)Cc1c(Cl)nc(-c2ccc(O)cc2)n1Cc1ccccc1", "note": "[drawing 132]", "values": [{"measurement": "inhibition in vivo at 0.3 mg/kg", "setting": "[2]; [6]", "result": "10.7 ± 1.8", "unit": "%"}, {"measurement": "inhibition in vivo at 0.5 mg/kg", "setting": "[2]; [9]", "result": "14.8 ± 1.8", "unit": "%"}, {"measurement": "inhibition in vivo at 0.3 mg/kg", "setting": "[2]; [7]", "result": "24.3 ± 2.3", "unit": "%"}, {"measurement": "inhibition in vivo at 0.5 mg/kg", "setting": "[2]; [10]", "result": "36 ± 3", "unit": "%"}, {"measurement": "inhibition in vivo at 0.3 mg/kg", "setting": "[2]; [8]", "result": "11.7 ± 6", "unit": "%"}, {"measurement": "inhibition in vivo at 0.5 mg/kg", "setting": "[2]; [11]", "result": "35 ± 3.9", "unit": "%"}]}, {"compound": "CCCCOc1ccc(Cn2c(-c3ccccc3)nc(Cl)c2CC(=O)O)cc1", "note": "[drawing 136]", "values": [{"measurement": "inhibition in vivo at 0.03 mg/kg", "setting": "[2]; [9]", "result": 17, "unit": "%"}, {"measurement": "inhibition in vivo at 3 mg/kg", "setting": "[2]; [9]", "result": 20, "unit": "%"}, {"measurement": "inhibition in vivo at 0.03 mg/kg", "setting": "[2]; [10]", "result": 46.5, "unit": "%"}, {"measurement": "inhibition in vivo at 3 mg/kg", "setting": "[2]; [10]", "result": 40, "unit": "%"}, {"measurement": "inhibition in vivo at 0.03 mg/kg", "setting": "[2]; [11]", "result": 40, "unit": "%"}, {"measurement": "inhibition in vivo at 3 mg/kg", "setting": "[2]; [11]", "result": 0, "unit": "%"}]}, {"compound": "A II: angiotensin II (hereinafter referred to briefly as \"A II\") (DRVYIHPF; Angiotensin-2; UniProt P01019 25-32, looked up) [reference compound]", "values": [{"measurement": "elevation of blood pressure after the infusion of A II, as compared with the one before the infusion", "setting": "[2]; A II 20 ng/kg/min continuous intravenous infusion, 75 cases, no test drug", "result": "45.5±2.1", "unit": "mmHg"}]}, {"compound": "COc1ccc(Cn2c(-c3ccccc3)nc(Cl)c2CC(=O)O)cc1C", "note": "[drawing 137]", "values": [{"measurement": "inhibition in vivo at 0.5 mg/kg", "setting": "[2]; [9]", "result": "33 ± 15", "unit": "%"}, {"measurement": "inhibition in vivo at 0.5 mg/kg", "setting": "[2]; [10]", "result": "60 ± 18", "unit": "%"}, {"measurement": "inhibition in vivo at 0.5 mg/kg", "setting": "[2]; [11]", "result": "62 ± 7", "unit": "%"}]}, {"compound": "Nc1ccc(-c2nc(Cl)c(CC(=O)O)n2Cc2ccccc2)cc1", "note": "[drawing 133]", "values": [{"measurement": "inhibition in vivo at 0.5 mg/kg", "setting": "[2]; [9]", "result": "17.7 ± 1.2", "unit": "%"}, {"measurement": "inhibition in vivo at 0.5 mg/kg", "setting": "[2]; [10]", "result": "45.3 ± 2.4", "unit": "%"}, {"measurement": "inhibition in vivo at 0.5 mg/kg", "setting": "[2]; [11]", "result": "37 ± 8.6", "unit": "%"}]}, {"compound": "O=C(O)Cc1c(Cl)nc(-c2cc([N+](=O)[O-])c(Cl)c([N+](=O)[O-])c2)n1Cc1ccccc1", "note": "[drawing 135]", "values": [{"measurement": "inhibition in vivo at 0.1 mg/kg", "setting": "[2]; [12]", "result": "22.5 ± 3.2", "unit": "%"}, {"measurement": "inhibition in vivo at 0.3 mg/kg", "setting": "[2]; [12]", "result": 18, "unit": "%"}, {"measurement": "inhibition in vivo at 0.1 mg/kg", "setting": "[2]; [13]", "result": "55 ± 7.5", "unit": "%"}, {"measurement": "inhibition in vivo at 0.3 mg/kg", "setting": "[2]; [13]", "result": 72, "unit": "%"}, {"measurement": "inhibition in vivo at 0.1 mg/kg", "setting": "[2]; [14]", "result": "55 ± 7.5", "unit": "%"}, {"measurement": "inhibition in vivo at 0.3 mg/kg", "setting": "[2]; [14]", "result": 72, "unit": "%"}]}]}
